Values joined by “and” are separate entries in the source; they are usually repeats but may differ in a detail not shown here. Equal entries are not always repeated. Where two headings read alike, the source gives them in different places.
What was measured:
[1] = test system: T1, Plasmodium falciparum Dd2-attB (parental line), asexual blood stages; test: microbe, parasite or virus in culture; set-up: replicate k of 3 (each line is one of three independent assays; the three lines of one compound and parasite line follow each other); conditions: n = 1; for Individual replicates / Log AC50 (M): 72 h; for AC50: Plasmodium falciparum, DD2, 72 h, read-out: Individual replicates / Log AC50 (converted)
T1 construct: Dd2-attB, the isogenic parental line
In short: (§1)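 The transgenic line overexpresses fumarate-dependent yeast DHODH, bypassing parasite mETC and ubiquinone-dependent parasite DHODH. A subset of compounds was run in three independent assays on both lines, and line differences were tested by two-sided Student's t-test.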

[2] = test system: P. berghei-ANKA-GFP-LucCON liver stage parasites in HepG2-A16-CD81EGFP cells; test: P. berghei liver stage Pb-Luc assay, Method 1 (UCSD, 1536-well); on Pb-Luc signal, 1 uM, repeat 1: reference of the scale not given here; on Pb-Luc signal, 1 uM, repeat 2: reference of the scale not given here; on Pb-Luc signal, 1 uM, repeat 3: reference of the scale not given here; on Pb-Luc signal, 3 uM, repeat 1: reference of the scale not given here; on Pb-Luc signal, 3 uM, repeat 2: reference of the scale not given here; on Pb-Luc signal, 3 uM, repeat 3: reference of the scale not given here; format: cell-based, Plasmodium berghei; conditions: for activity at 1 µM / activity at 3 µM: 48 h, average of 2 wells, 1536-well plate; for activity at 1 µM: nominal 1 uM (10 mM stock), […] for 15 mM, 1.2 uM for 12 mM, 2 uM for 20 mM stock; for activity at 3 µM: nominal 3 uM (10 mM stock), 4.5 uM for 15 mM, 3.6 uM for 12 mM, 6 uM for 20 mM stock; for AC50 / Max Resp (signal direction of the dose response) / Log AC50 (M): Method 1; for Max Resp (signal direction of the dose response): Decrease = decreasing P. berghei viability with dose, Increase = increasing signal, Inactive = no dose response
[3] = in vitro; conditions: human, HepG2-A16-CD81EGFP cells, uninfected
[4] = test system: Plasmodium falciparum Dd2 asexual blood stage parasites; test: microbe, parasite or virus in culture; set-up: species or system Plasmodium falciparum Dd2 in human erythrocytes; single determination (one 11-point concentration-response curve); conditions: Plasmodium falciparum, DD2, Erythrocyte, 72 h
[5] = test system: HepG2-A16-CD81EGFP cells
[6] = test system: luciferase-expressing P. berghei liver stage parasites in HepG2 cells; test: Inhibition of liver-stage development assay (ILSDA), Method 2 (WRAIR, 96-well); format: cell-based, Plasmodium berghei; conditions: for Activity direction (Decrease / Inactive): P. berghei liver stage; for Max Resp (signal direction of the dose response): Decrease = decreasing P. berghei viability with dose, Increase = increasing signal, Inactive = no dose response; for Log AC50 (M): log10 of molar AC50 from Hill fit
[7] = test system: T2, Plasmodium falciparum Dd2-attB-ScDHODH (transgenic line expressing yeast DHODH), asexual blood stages; test: organism not typed; set-up: replicate k of 3 (each line is one of three independent assays; the three lines of one compound and parasite line follow each other); conditions: 72 h, n = 1; for AC50: read-out: Individual replicates / Log AC50 (converted)
T2 construct: Dd2-attB-ScDHODH, the transgenic line that expresses yeast DHODH
In short: as §1

[8] = Plasmodium berghei, repeat 1, read-out: Pb-Luc signal, 1 uM, repeat 1
[9] = Plasmodium berghei, repeat 2, read-out: Pb-Luc signal, 1 uM, repeat 2
[10] = Plasmodium berghei, repeat 3, read-out: Pb-Luc signal, 1 uM, repeat 3
[11] = Plasmodium berghei, repeat 1, read-out: Pb-Luc signal, 3 uM, repeat 1
[12] = Plasmodium berghei, repeat 2, read-out: Pb-Luc signal, 3 uM, repeat 2
[13] = Plasmodium berghei, repeat 3, read-out: Pb-Luc signal, 3 uM, repeat 3
[14] = Plasmodium berghei, Hill fit, 50% of maximum activity response, read-out: AC50
[15] = Plasmodium berghei, log10 of molar AC50 from Hill fit, read-out: Log AC50 (converted)
[16] = nominal 1 uM (10 mM stock), […] for 15 mM, 1.2 uM for 12 mM, 2 uM for 20 mM stock, average of 2 wells, repeat 2
[17] = nominal 3 uM (10 mM stock), 4.5 uM for 15 mM, 3.6 uM for 12 mM, 6 uM for 20 mM stock, average of 2 wells, repeat 2
[18] = Hill fit, 50% of maximum activity response, read-out: AC50
[19] = log10 of molar AC50 from Hill fit
[20] = Method 2, Hill fit, 50% of maximum activity response, read-out: AC50
[21] = Plasmodium berghei, HepG2, P. berghei liver stage, Method 2, dose response, read-out: AC50
[22] = Plasmodium berghei, HepG2, P. berghei liver stage, Method 2, dose response, read-out: Log AC50 (converted)

Oc1ccc(CN2CC(CNc3ccccc3)C3(C2)CN(c2ccccc2)C3)cc1 (stereo not drawn) [NCGC00416032-01]
Individual replicates / Log AC50 (M) [1]: -5.9373 Log AC50 (M) and -6.1873 Log AC50 (M) | AC50 [1]: 818 nM | activity at 1 µM [2, 8]: 52.9% | activity at 1 µM [2, 9]: 59% | activity at 1 µM [2, 10]: 77.5% | activity at 3 µM [2, 11]: 5.3% | activity at 3 µM [2, 12]: 6.04% | activity at 3 µM [2, 13]: 8.95% | AC50 [2, 14]: 1410 nM | AC50 [2, 15]: 1410 nM | viability at 48 h, 1 µM [3]: 106% | viability at 48 h, 3 µM [3]: 106% | AC50 ([4]; read-out: AC50): 611 nM | HepG2 viability signal, 1 uM, repeat 2 [5, 16]: 101.59% | HepG2 viability signal, 3 uM, repeat 2 [5, 17]: 99.28% | Activity direction (Decrease / Inactive) ([6]; Method 2, dose response): Inactive | Individual replicates / Log AC50 (M) [7]: -5.6373 Log AC50 (M) and -5.9873 Log AC50 (M)

Cc1ccc(NC2=C(c3ccc(C(F)(F)F)cc3)C(=O)c3ccccc32)cc1C [NCGC00107300-01]
Individual replicates / Log AC50 (M) [1]: -5.7486 Log AC50 (M) and -5.5986 Log AC50 (M) | AC50 [1]: 1590 nM | Max Resp (signal direction of the dose response) [2]: Decrease | AC50 [2, 18]: 794 nM | Log AC50 (M) [2, 19]: -6.100 M | AC50 [2, 14]: 447 nM | AC50 [2, 15]: 447 nM | AC50 ([4]; read-out: AC50): 2110 nM | Max Resp (signal direction of the dose response) ([6]; Method 2): Decrease | AC50 [6, 20]: 398 nM | Log AC50 (M) ([6]; Method 2): -6.400 M | Individual replicates / Log AC50 (M) [7]: -5.4986 Log AC50 (M) and -5.2486 Log AC50 (M) | AC50 [7]: 3990 nM

Cc1ccc(NC2=C(c3ccc(C(F)(F)F)cc3)C(=O)c3ccccc32)cc1F [NCGC00107266-01]
Individual replicates / Log AC50 (M) [1]: -6.2486 Log AC50 (M) and -6.2986 Log AC50 (M) | AC50 [1]: 399 nM | Max Resp (signal direction of the dose response) [2]: Decrease | AC50 [2, 18]: 1410 nM | Log AC50 (M) [2, 19]: -5.850 M | AC50 [2, 14]: 1260 nM | AC50 [2, 15]: 1260 nM | AC50 ([4]; read-out: AC50): 1880 nM | Max Resp (signal direction of the dose response) ([6]; Method 2): Decrease | AC50 [6, 20]: 79 nM | Log AC50 (M) ([6]; Method 2): -7.100 M | Individual replicates / Log AC50 (M) [7]: -5.4986 Log AC50 (M) and -5.1986 Log AC50 (M) and -5.3986 Log AC50 (M)

COc1ccc(NC2=C(c3ccc(C(F)(F)F)cc3)C(=O)c3ccccc32)cc1 [NCGC00107310-01]
Individual replicates / Log AC50 (M) [1]: -6.3486 Log AC50 (M) and -6.1486 Log AC50 (M) and -6.1986 Log AC50 (M) | Max Resp (signal direction of the dose response) [2]: Decrease | AC50 [2, 14]: 1780 nM | AC50 [2, 15]: 1780 nM | AC50 ([4]; read-out: AC50): 2110 nM | Max Resp (signal direction of the dose response) ([6]; Method 2): Decrease | AC50 [6, 20]: 141 nM | Log AC50 (M) ([6]; Method 2): -6.850 M | Individual replicates / Log AC50 (M) [7]: -5.7986 Log AC50 (M) and -5.8986 Log AC50 (M) (2×)

CCCN1C(CC(C)C)=N[S+](=O)([O-])c2cc(NC(=O)c3ccccc3Cl)ccc21 [NCGC00473218-01]
Individual replicates / Log AC50 (M) [1]: -5.5486 Log AC50 (M) and -5.3986 Log AC50 (M) and -5.1986 Log AC50 (M) | Activity direction (Decrease / Inactive) ([6]; Method 2, dose response): Inactive | Individual replicates / Log AC50 (M) [7]: -5.0486 Log AC50 (M) | AC50 [7]: 7970 nM

Cc1ccccc1[S+](=O)([O-])N1CCCC(CCC(=O)NCCN(C)C2CCCCC2)C1 (stereo not drawn) [NCGC00425745-01]
activity at 1 µM [2, 8]: 72% | activity at 1 µM [2, 9]: 61% | activity at 1 µM [2, 10]: 64.9% | activity at 3 µM [2, 11]: 42% | activity at 3 µM [2, 12]: 57.8% | activity at 3 µM [2, 13]: 54.8% | AC50 [2, 14]: 1780 nM | AC50 [2, 15]: 1780 nM | viability at 48 h, 1 µM [3]: 112% | viability at 48 h, 3 µM [3]: 109% | AC50 [4]: 8410 nM | HepG2 viability signal, 1 uM, repeat 2 [5]: 108.18% | HepG2 viability signal, 3 uM, repeat 2 [5]: 103.93% | Activity direction (Decrease / Inactive) ([6]; Method 2, dose response): Decrease | AC50 [6, 21]: 562 nM | AC50 [6, 22]: 562 nM

CCCN1C(CC(C)C)=N[S+](=O)([O-])c2cc(NC(=O)c3ccco3)ccc21 [NCGC00473219-01]
Individual replicates / Log AC50 (M) [1]: -6.1986 Log AC50 (M) and -5.7986 Log AC50 (M) and -6.3486 Log AC50 (M) | Max Resp (signal direction of the dose response) [2]: Decrease | activity at 1 µM [2, 8]: 32.3% | activity at 1 µM [2, 9]: 25.4% | activity at 1 µM [2, 10]: 19.9% | activity at 3 µM [2, 11]: 11.9% | activity at 3 µM [2, 12]: 8.91% | activity at 3 µM [2, 13]: 10.7% | AC50 [2, 14]: 631 nM | AC50 [2, 15]: 631 nM | viability at 48 h, 1 µM [3]: 103% | viability at 48 h, 3 µM [3]: 105% | AC50 ([4]; read-out: AC50): 7500 nM | HepG2 viability signal, 1 uM, repeat 2 [5]: 101.29% | HepG2 viability signal, 3 uM, repeat 2 [5]: 102.75% | Activity direction (Decrease / Inactive) ([6]; Method 2, dose response): Inactive | Individual replicates / Log AC50 (M) [7]: -5.5986 Log AC50 (M) and -5.4986 Log AC50 (M) and -5.2486 Log AC50 (M)

Cc1ccc(C)c(NC2=C(c3ccc(C(F)(F)F)cc3)C(=O)c3ccccc32)c1 [NCGC00107302-01]
Individual replicates / Log AC50 (M) [1]: -5.6986 Log AC50 (M) and -5.7486 Log AC50 (M) | AC50 [1]: 1130 nM | AC50 [2, 14]: 1580 nM | AC50 [2, 15]: 1580 nM | AC50 ([4]; read-out: AC50): 4730 nM | Max Resp (signal direction of the dose response) ([6]; Method 2): Decrease | AC50 [6, 20]: 501 nM | Log AC50 (M) ([6]; Method 2): -6.300 M | Individual replicates / Log AC50 (M) [7]: -4.9986 Log AC50 (M) and -5.0486 Log AC50 (M) | AC50 [7]: 7970 nM

Cc1cc(C)cc(C(=O)Nc2ccc3c(N4CCCC4)ncnc3c2)c1 [NCGC00425487-01]
activity at 1 µM [2, 8]: 67.5% | activity at 1 µM [2, 9]: 99.6% | activity at 1 µM [2, 10]: 77.5% | activity at 3 µM [2, 11]: 25.9% | activity at 3 µM [2, 12]: 34.2% | activity at 3 µM [2, 13]: 15.9% | AC50 [2, 14]: 1000 nM | AC50 [2, 15]: 1000 nM | viability at 48 h, 1 µM [3]: 89% | viability at 48 h, 3 µM [3]: 27.1% | AC50 ([4]; read-out: AC50): 2370 nM | HepG2 viability signal, 1 uM, repeat 2 [5, 16]: 92.65% | HepG2 viability signal, 3 uM, repeat 2 [5, 17]: 36.60% | Activity direction (Decrease / Inactive) ([6]; Method 2, dose response): Decrease | AC50 [6, 21]: 15800 nM | AC50 [6, 22]: 15800 nM
